Results as given in patent US4780281A, “Method for assay of peroxidase enzyme or reducing substrate activity” (Wayne State University, priority 1985, dated 1988).

molecular target: T1, Horseradish peroxidase (HRP) (Armoracia rusticana, UniProt P00433); assay: Reducing substrate specificity assay (HRP-catalysed reduction of PPHP to PPA, HPLC); type: biochemical; details: 60 nM HRP, 200 microM reducing substrate, 100 microM PPHP, 0.1 M potassium citrate pH 5.5, 0.2 mM Tween-20, 25° C., 6 minutes, triplicate
T1 construct: purchased Sigma Chemical Corporation Type VI
T1 sequence (P00433 31-338 limits assumed): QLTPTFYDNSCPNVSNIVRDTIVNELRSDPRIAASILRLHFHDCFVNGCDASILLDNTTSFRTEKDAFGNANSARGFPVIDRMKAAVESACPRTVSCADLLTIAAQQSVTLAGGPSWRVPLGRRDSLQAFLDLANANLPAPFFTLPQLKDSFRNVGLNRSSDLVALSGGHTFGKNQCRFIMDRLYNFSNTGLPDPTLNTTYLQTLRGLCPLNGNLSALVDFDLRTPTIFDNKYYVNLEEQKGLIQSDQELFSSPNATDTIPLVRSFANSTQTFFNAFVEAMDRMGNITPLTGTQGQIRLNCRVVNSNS
Protocol: Incubations were performed in triplicate with a 25° C. shaker bath in 16×150 mm disposable glass test tubes. 60 nM HRP was incubated at 25° C. in 0.1 M potassium citrate buffer, […] containing 0.2 mM Tween 20, with 100 microM PPHP and 200 microM potential reducing substrate. The index value is defined as, Index=concentration PPA/(concentration PPA+concentration PPHP). Most reducing substrates were prepared daily as 8 mM stocks in either water, methanol, or methanol:water (1:1 v/v). DPBF was dissolved in acetone. Uric acid was dissolved in DMSO. Epinephrine required titration with dilute hydrochloric acid prior to dissolution in methanol. Indoleacetic acid, tryptophan, cysteine, and methionine were titrated with dilute potassium hydroxide prior to dissolution in methanol:water (1:1 v/v).
For the data in Table 1 hereinafter, reducing substrates (50 microliters of 8 mM stocks--see Table 1 for preparation) were transferred into 1.9 ml of 0.1 M potassium citrate buffer, pH 5.5, containing 0.2 mM Tween-20 and allowed to thermally equilibrate for 10 minutes. HRP (24 microl of a 5 microM stock) was added to each trial and preincubated for three minutes prior to the addition of PPHP (25 microl of 8 mM stock in methanol). Incubations were stopped at 6 minutes by pouring mixtures onto Baker SPE System columns (3 ml octyldecylsilyl, from J. T. Baker & Co.). The columns were prepared prior to use by passing 3×3 ml aliquots of water through the columns with the Baker SPE vacuum system. At the stop time, an individual trial was poured onto the column and aspirated to near dryness. Each individual trial was set aside until the reminder of the trials were treated in the same manner. After all incubation trials were partitioned onto the SPE columns, each individual incubation tube was washed with 2 ml of 0.2 mM Tween 20 in distilled water and poured onto the corresponding SPE column. This Tween 20/water wash was aspirated to near dryness with vacuum. Analytes were eluted into 12×76 mm disposable glass test tubes with 2×1 ml aliquots of methanol (HPLC grade, Fisher Scientific Co.). The sample collection rack for the Baker 10 SPE System was modified to accommodate these 12 mm diameter tubes. The SPE columns were aspirated dry at this point and discarded. An internal chromatographic standard of p-nitrobenzyl alcohol (25 microl of 8 mM stock solution in methanol) was added to each methanol eluent, mixed by vortexing, and then clarified by filtration through a 0.45 micron nylon Swinney type filter (Rainin Instrument Corp.). The filtered eluents were used directly for chromatographic analysis.
The Initial incubation conditions were 0.1 M potassium citrate buffer, pH 5.5, with 0.2 mM Tween 20, 200 microM reducing substrate, 60 nM HRP and […] PPHP (structure 1).
Quantitation was determined by adding an internal standard (p-nitrobenzyl alcohol: annotated as I.S. on chromatograms) and ratioing peak areas. Chromatograms are 40 microliters injections onto a 5 micron Zorbax octylsilyl reverse-phase column (DuPont Instrument Corp.) with an isocratic elution mobile of 56% v/v methanol in water at 2 ml per min. U.V. monitoring was with a fixed 254 nm detector (Varian 5000, Varian Instrument Corp.). Vertical numbers are associated with peak retention times in minutes (the integrator used was a Vista 402 System, Varian Instruments).
Analyte concentrations were calculated by an internal standard method of calculation. This required individual incubation chromatograms to be compared to a calibration chromatogram generated by chromatographing a 40 microliter sample aliquot of a solution of PPHP as described under calculations.

Compound | Index = concentration PPA/(concentration PPA+concentration PPHP)
Nc1ccccc1 [Aniline, aniline] | 0.97 ± 0.01
COc1ccc(O)c(C(C)(C)C)c1 [BHA, butylated hydroxyanisole] | 0.56 ± 0.01
Cc1cc(C(C)(C)C)c(O)c(C(C)(C)C)c1 [BHT, butylated hydroxytoluene] | 0.19 ± 0.03
N[C@@H](CS)C(=O)O [Cysteine, 1-cysteine] | 0.06 ± 0.01
CCN(CC)C(=S)S [Diethyldithiocarbamate, diethyldithiocarbamic acid] | 0.72 ± 0.02
CNC[C@H](O)c1ccc(O)c(O)c1 [Epinephrin, d,1-epinephrine] | 0.39 ± 0.01
N[C@@H](CCC(=O)N[C@@H](CS)C(=O)NCC(=O)O)C(=O)O [Glutathione, reduced glutathione] | 0.07 ± 0.01
Oc1ccc(O)cc1 [Hydroquinone, hydroquinone] | 0.97 ± 0.01
[I-].[K+] [Iodide, potassium iodide] | 0.97 ± 0.02
CSCC[C@H](N)C(=O)O [Methionine, d,1-methionine] | 0.05 ± 0.01
NC(=O)C1=CN([C@@H]2O[C@H](COP(=O)(O)OP(=O)(O)OC[C@H]3O[C@@H](n4cnc5c(N)ncnc54)[C@H](O)[C@@H]3O)[C@@H](O)[C@H]2O)C=CC1 [NADH, reduced nicotinamide adenine dinucleotide] | 0.05 ± 0.00
NC(=O)C1=CN([C@@H]2O[C@H](COP(=O)(O)OP(=O)(O)OC[C@H]3O[C@@H](n4cnc5c(N)ncnc54)[C@H](OP(=O)(O)O)[C@@H]3O)[C@@H](O)[C@H]2O)C=CC1 [NADPH, reduced nicotinamide adenine dinucleotide phosphate] | 0.06 ± 0.01

Continued, values first:

Index = concentration PPA/(concentration PPA+concentration PPHP) | Compound
0.06 ± 0.01 | O=C(O)CCCCC1CCSS1 (racemic) [Lipoic Acid, d,1-thiotic acid]
0.50 ± 0.00 | O=C1O[C@H]([C@@H](O)CO)C(O)=C1O [Ascorbic Acid, 1-ascorbic acid]
0.06 ± 0.01 | c1ccc(-c2oc(-c3ccccc3)c3ccccc23)cc1 [DPBF, 1,3-diphenylisobenzofuran]
0.97 ± 0.01 | COc1ccccc1O [Guaniacol, guaiacol]
0.14 ± 0.01 | O=C(O)Cc1c[nH]c2ccccc12 [Indoleacetic Acid, indole-3-acetic acid]
0.13 ± 0.04 | N[C@@H](Cc1c[nH]c2ccccc12)C(=O)O [Tryptophan, 1-tryptophan]
0.96 ± 0.00 | O=c1[nH]c(=O)c2[nH]c(=O)[nH]c2[nH]1 [Uric Acid, uric acid]

same assay, conditions: 200 microM reducing substrate, 60 nM HRP, pH 5.5

Compound | reducing substrate quality for HRP (FIG. 1)
COc1ccc(O)c(C(C)(C)C)c1 [BHA, butylated hydroxyanisole] | moderate
N[C@@H](Cc1c[nH]c2ccccc12)C(=O)O [Tryptophan, 1-tryptophan] | poor

molecular target: T2, Prostaglandin H Synthase (Ovis aries, UniProt P05979); assay: Reducing substrate efficiency for PPHP reduction, conditions as for Table 1; type: biochemical; details: not given
T2 sequence (P05979 25-600): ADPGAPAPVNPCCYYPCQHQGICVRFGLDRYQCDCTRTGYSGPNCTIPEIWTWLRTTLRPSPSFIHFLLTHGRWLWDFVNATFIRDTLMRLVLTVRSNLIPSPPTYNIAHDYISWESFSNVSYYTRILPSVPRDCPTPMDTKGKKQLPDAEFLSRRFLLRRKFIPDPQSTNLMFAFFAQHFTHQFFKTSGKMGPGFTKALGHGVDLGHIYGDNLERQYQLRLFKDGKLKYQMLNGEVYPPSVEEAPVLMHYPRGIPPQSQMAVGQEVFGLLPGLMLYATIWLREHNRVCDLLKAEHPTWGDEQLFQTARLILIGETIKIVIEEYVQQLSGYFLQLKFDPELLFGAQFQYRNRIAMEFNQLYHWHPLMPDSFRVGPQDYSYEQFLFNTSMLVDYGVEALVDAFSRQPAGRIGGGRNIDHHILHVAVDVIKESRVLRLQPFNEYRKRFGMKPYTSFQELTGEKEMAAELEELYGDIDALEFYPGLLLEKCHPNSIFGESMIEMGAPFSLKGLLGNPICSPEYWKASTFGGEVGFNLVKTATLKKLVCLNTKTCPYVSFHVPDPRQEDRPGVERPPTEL

Compound | reducing substrate for PPHP reduction by prostaglandin H synthase
OC1C=Cc2c(cc3ccc4cccc5ccc2c3c45)C1O (stereo not drawn) [7,8-dihydroxy-7,8-dihydrobenzo[a]pyrene] | not reducing substrates
c1ccc(-c2oc(-c3ccccc3)c3ccccc23)cc1 [DPBF, 1,3-diphenylisobenzofuran] | not reducing substrates
c1ccc2c(c1)cc1ccc3cccc4ccc2c1c34 [benzo[a]yrene] | not reducing substrates

same assay, conditions: Prostaglandin H synthase, under the conditions for Table 1

Compound | Index of Efficiency of Reducing Substrates
Cc1c(CC(=O)O)c2cc(O)ccc2n1C(=O)c1ccc(Cl)cc1 [5-Hydroxy-indomethacin] | .34
CC(=O)Oc1ccccc1C(=O)O [Aspirin] | .04
O=C(O)Cc1ccccc1Nc1c(Cl)cccc1Cl [Diclofenac] | .50
CNC[C@H](O)c1ccc(O)c(O)c1 [Epinephrin, d,1-epinephrine] | .92
O=C(O)c1ccccc1Nc1cccc(C(F)(F)F)c1 [Flufenamate] | .68
CC(C(=O)O)c1ccc(-c2ccccc2)c(F)c1 (stereo not drawn) [Flurbiprofen] | .12
CC(C)Cc1ccc(C(C)C(=O)O)cc1 (stereo not drawn) [Ibuprofen] | .12
Cc1cc(NC(=O)C2=C(O)c3ccccc3S(=O)(=O)N2C)no1 [Isoxicam] | .25
COc1ccc2c(c1)c(C(C)C(=O)O)c(C)n2Cc1ccc(SC)cc1 (stereo not drawn) [MK-410] | .26
CC(C)(C)c1cc(I)c(O)c(CN)c1 [MK-447] | .72
Cc1ccc(Cl)c(Nc2ccccc2C(=O)O)c1Cl [Meclofenamate] | .35
CSc1ccccc1 [Methylphenyl Sulfide] | .50
CCCCC1C(=O)NN(c2ccccc2)C1=O (stereo not drawn) [Monophenylbutazone] | .23
CC1=NN(CCOc2ccc3ccccc3c2)C(=O)C1 [Nafazatrom] | .80
CCCCC1C(=O)N(c2ccccc2)N(c2ccc(O)cc2)C1=O (stereo not drawn) [Oxyphenylbutazone] | .71
CCCCC1C(=O)N(c2ccccc2)N(c2ccccc2)C1=O [Phenylbutazone] | .23
O=C(O)c1ccccc1O [Salicylic Acid] | .06
CSc1ccc(/C=C2/C(C)=C(CC(=O)O)c3cc(F)ccc32)cc1 [Sulindac Sulfide] | .96
